Experimental data taken from ChEMBL document CHEMBL5723582, “Data for DCP probe T-10430” (2024).

Legend:
Settings in all cases: Compound concentration 1.0 uM
[1] = biological target: 5-hydroxytryptamine receptor 5A (Homo sapiens) (UniProt P47898); test: RLU of HTR5 at 1.0 µM in the […] PRESTO-Tango GPCRome screen
[2] = biological target: Hydroxycarboxylic acid receptor 3 (Homo sapiens) (UniProt P49019); test: RLU of HCA3 at 1.0 µM in the Aequorin PRESTO-Tango GPCRome screen
[3] = biological target: N-formyl peptide receptor 2 (Homo sapiens) (UniProt P25090); test: RLU of FPR2 at 1.0 µM in the […] PRESTO-Tango GPCRome screen
[4] = biological target: Cysteinyl leukotriene receptor 1 (Homo sapiens) (UniProt Q9Y271); test: RLU of CYSLTR1 at 1.0 µM in the […] PRESTO-Tango GPCRome screen
Sequence of Cysteinyl leukotriene receptor 1 (Homo sapiens) (Q9Y271 whole entry): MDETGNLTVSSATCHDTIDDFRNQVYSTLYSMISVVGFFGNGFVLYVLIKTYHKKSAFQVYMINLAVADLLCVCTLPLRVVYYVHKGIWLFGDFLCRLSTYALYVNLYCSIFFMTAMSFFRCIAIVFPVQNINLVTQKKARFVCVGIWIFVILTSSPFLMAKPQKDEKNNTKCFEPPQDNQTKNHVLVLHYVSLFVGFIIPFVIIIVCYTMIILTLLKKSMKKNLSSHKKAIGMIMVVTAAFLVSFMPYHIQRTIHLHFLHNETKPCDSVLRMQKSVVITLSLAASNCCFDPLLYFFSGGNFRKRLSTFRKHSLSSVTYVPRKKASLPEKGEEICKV

[5] = biological target: Metabotropic glutamate receptor 1 (Homo sapiens) (UniProt Q13255); test: RLU of GRM1 at 1.0 µM in the Aequorin PRESTO-Tango GPCRome screen
[6] = biological target: D(1A) dopamine receptor (Homo sapiens) (UniProt P21728); test: RLU of DRD1 at 1.0 µM in the […] PRESTO-Tango GPCRome screen
[7] = biological target: Neuropeptide Y receptor type 1 (Homo sapiens) (UniProt P25929); test: RLU of NPY1R at 1.0 µM in the […] PRESTO-Tango GPCRome screen
[8] = biological target: P2Y purinoceptor 2 (Homo sapiens) (UniProt P41231); test: RLU of P2RY2 at 1.0 µM in the […] PRESTO-Tango GPCRome screen
[9] = biological target: Probable G-protein coupled receptor 32 (Homo sapiens) (UniProt O75388); test: RLU of GPR32 at 1.0 µM in the […] PRESTO-Tango GPCRome screen
[10] = biological target: Type-2 angiotensin II receptor (Homo sapiens) (UniProt P50052); test: RLU of AGTR2 at 1.0 µM in the […] PRESTO-Tango GPCRome screen
Sequence of Type-2 angiotensin II receptor (Homo sapiens) (P50052 whole entry): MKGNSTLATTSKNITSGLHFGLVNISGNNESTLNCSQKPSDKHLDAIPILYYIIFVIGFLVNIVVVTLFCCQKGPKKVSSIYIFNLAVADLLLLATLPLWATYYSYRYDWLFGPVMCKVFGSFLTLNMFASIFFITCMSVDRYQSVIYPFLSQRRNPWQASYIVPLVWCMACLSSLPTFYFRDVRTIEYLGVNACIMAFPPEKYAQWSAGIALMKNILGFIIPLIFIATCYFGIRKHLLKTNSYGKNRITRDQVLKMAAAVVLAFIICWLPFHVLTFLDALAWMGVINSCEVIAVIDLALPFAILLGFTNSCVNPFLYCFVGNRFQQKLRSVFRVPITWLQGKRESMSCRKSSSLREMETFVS

[11] = biological target: C5a anaphylatoxin chemotactic receptor 2 (Homo sapiens) (UniProt Q9P296); test: RLU of GPR77 at 1.0 µM in the […] PRESTO-Tango GPCRome screen
Sequence of C5a anaphylatoxin chemotactic receptor 2 (Homo sapiens) (Q9P296 whole entry): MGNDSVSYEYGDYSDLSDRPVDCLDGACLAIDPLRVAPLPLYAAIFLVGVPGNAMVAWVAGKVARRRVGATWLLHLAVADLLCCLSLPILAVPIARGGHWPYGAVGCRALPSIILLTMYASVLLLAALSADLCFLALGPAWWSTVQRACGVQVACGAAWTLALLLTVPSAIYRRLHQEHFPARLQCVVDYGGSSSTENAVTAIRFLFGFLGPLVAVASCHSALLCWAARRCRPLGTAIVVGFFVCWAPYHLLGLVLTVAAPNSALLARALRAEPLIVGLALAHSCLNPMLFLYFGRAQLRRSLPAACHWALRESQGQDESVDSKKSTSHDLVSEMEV

[12] = biological target: Trace amine-associated receptor 1 (Homo sapiens) (UniProt Q96RJ0); test: RLU of TA1 at 1.0 µM in the […] PRESTO-Tango GPCRome screen
[13] = biological target: Adhesion G-protein coupled receptor G2 (Homo sapiens) (UniProt Q8IZP9); test: RLU of GPR64 at 1.0 µM in the […] PRESTO-Tango GPCRome screen
[14] = biological target: Galanin receptor type 1 (Homo sapiens) (UniProt P47211); test: RLU of GAL1 at 1.0 µM in the […] PRESTO-Tango GPCRome screen
[15] = biological target: Glucagon-like peptide 1 receptor (Homo sapiens) (UniProt P43220); test: RLU of GLP1R at 1.0 µM in the […] PRESTO-Tango GPCRome screen
[16] = biological target: G-protein coupled receptor 151 (Homo sapiens) (UniProt Q8TDV0); test: RLU of GPR151 at 1.0 µM in the […] PRESTO-Tango GPCRome screen
Sequence of G-protein coupled receptor 151 (Homo sapiens) (Q8TDV0 whole entry): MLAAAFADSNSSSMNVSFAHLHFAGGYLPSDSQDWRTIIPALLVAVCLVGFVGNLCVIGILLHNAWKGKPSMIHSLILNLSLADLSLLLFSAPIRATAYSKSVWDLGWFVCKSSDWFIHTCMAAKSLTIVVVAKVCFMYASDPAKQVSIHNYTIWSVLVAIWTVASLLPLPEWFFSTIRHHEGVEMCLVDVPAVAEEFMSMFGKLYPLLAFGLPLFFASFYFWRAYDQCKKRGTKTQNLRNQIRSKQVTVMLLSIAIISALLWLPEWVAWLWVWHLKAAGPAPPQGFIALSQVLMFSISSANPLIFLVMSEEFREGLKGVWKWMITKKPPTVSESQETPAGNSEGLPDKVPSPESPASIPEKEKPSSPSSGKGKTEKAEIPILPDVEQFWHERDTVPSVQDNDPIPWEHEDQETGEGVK

[17] = biological target: C-C chemokine receptor type 6 (Homo sapiens) (UniProt P51684); test: RLU of CCR6 at 1.0 µM in the […] PRESTO-Tango GPCRome screen
[18] = biological target: Somatostatin receptor type 3 (Homo sapiens) (UniProt P32745); test: RLU of SSTR3 at 1.0 µM in the […] PRESTO-Tango GPCRome screen
Sequence of Somatostatin receptor type 3 (Homo sapiens) (P32745 whole entry): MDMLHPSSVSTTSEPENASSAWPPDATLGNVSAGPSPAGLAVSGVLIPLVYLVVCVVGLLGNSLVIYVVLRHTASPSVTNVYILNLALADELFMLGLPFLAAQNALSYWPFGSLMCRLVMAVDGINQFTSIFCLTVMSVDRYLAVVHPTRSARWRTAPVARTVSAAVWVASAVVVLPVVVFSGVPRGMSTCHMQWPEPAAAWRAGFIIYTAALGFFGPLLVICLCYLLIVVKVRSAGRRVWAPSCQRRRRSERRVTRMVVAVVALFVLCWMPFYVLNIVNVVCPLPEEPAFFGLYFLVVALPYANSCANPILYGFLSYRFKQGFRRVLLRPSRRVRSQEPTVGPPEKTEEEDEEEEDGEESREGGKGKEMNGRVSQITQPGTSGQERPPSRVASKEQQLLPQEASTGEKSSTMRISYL

[19] = biological target: Glucose-dependent insulinotropic receptor (Homo sapiens) (UniProt Q8TDV5); test: RLU of GPR119 at 1.0 µM in the […] PRESTO-Tango GPCRome screen
Sequence of Glucose-dependent insulinotropic receptor (Homo sapiens) (Q8TDV5 whole entry): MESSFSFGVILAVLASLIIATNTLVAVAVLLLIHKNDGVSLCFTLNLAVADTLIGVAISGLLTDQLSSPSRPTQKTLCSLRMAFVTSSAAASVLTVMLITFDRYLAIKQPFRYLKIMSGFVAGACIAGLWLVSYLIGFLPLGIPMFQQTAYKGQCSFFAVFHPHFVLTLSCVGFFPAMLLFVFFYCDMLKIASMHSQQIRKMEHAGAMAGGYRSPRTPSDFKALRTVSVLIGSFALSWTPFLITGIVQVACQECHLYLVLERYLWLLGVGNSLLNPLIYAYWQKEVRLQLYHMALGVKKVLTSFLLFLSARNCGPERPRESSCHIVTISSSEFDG

[20] = biological target: C-C chemokine receptor type 7 (Homo sapiens) (UniProt P32248); test: RLU of CCR7 at 1.0 µM in the […] PRESTO-Tango GPCRome screen
Sequence of C-C chemokine receptor type 7 (Homo sapiens) (P32248 whole entry): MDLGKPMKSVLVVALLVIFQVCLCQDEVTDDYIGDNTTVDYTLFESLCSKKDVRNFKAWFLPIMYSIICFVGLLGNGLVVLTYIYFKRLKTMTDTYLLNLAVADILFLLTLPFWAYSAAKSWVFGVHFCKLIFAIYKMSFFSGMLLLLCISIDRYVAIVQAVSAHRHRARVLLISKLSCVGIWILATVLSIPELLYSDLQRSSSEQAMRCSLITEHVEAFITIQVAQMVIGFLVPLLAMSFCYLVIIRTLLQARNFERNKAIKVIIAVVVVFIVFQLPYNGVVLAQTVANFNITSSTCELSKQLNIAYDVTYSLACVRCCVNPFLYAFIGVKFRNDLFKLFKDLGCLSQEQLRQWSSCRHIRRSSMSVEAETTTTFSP

[21] = biological target: Adenosine receptor A1 (Homo sapiens) (UniProt P30542); test: RLU of ADORA1 at 1.0 µM in the […] PRESTO-Tango GPCRome screen
[22] = biological target: C-C chemokine receptor type 2 (Homo sapiens) (UniProt P41597); test: RLU of CCR2 at 1.0 µM in the […] PRESTO-Tango GPCRome screen
[23] = biological target: Probable G-protein coupled receptor 152 (Homo sapiens) (UniProt Q8TDT2); test: RLU of GPR152 at 1.0 µM in the […] PRESTO-Tango GPCRome screen
Sequence of Probable G-protein coupled receptor 152 (Homo sapiens) (Q8TDT2 whole entry): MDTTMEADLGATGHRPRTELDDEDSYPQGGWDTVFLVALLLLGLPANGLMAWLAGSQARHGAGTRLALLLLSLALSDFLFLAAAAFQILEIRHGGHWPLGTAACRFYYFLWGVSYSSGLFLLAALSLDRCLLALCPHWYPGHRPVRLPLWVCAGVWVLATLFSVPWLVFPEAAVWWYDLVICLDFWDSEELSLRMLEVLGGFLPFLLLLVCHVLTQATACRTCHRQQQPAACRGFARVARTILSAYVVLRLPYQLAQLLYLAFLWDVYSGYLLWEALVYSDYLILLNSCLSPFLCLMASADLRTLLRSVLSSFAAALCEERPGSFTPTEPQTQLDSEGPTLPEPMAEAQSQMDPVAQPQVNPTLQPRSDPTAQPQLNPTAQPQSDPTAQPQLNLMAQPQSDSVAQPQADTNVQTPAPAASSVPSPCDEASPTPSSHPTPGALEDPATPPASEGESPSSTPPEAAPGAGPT

[24] = biological target: Substance-K receptor (Homo sapiens) (UniProt P21452); test: RLU of TACR2 at 1.0 µM in the […] PRESTO-Tango GPCRome screen
Sequence of Substance-K receptor (Homo sapiens) (P21452 whole entry): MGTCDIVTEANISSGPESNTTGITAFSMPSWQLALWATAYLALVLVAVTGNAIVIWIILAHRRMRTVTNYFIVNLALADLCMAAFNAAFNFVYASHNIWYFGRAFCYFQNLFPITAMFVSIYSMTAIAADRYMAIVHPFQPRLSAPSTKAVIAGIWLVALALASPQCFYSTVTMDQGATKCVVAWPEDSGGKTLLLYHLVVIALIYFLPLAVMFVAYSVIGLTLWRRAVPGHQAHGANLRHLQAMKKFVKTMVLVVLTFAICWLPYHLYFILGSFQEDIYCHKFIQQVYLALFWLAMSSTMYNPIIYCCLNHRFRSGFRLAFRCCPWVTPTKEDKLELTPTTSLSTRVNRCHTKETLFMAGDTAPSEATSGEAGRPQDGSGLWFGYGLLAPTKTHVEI

[25] = biological target: Probable G-protein coupled receptor 162 (Homo sapiens) (UniProt Q16538); test: RLU of GPR162 at 1.0 µM in the […] PRESTO-Tango GPCRome screen
[26] = biological target: Oxoeicosanoid receptor 1 (Homo sapiens) (UniProt Q8TDS5); test: RLU of OXER1 at 1.0 µM in the […] PRESTO-Tango GPCRome screen
Sequence of Oxoeicosanoid receptor 1 (Homo sapiens) (Q8TDS5 whole entry): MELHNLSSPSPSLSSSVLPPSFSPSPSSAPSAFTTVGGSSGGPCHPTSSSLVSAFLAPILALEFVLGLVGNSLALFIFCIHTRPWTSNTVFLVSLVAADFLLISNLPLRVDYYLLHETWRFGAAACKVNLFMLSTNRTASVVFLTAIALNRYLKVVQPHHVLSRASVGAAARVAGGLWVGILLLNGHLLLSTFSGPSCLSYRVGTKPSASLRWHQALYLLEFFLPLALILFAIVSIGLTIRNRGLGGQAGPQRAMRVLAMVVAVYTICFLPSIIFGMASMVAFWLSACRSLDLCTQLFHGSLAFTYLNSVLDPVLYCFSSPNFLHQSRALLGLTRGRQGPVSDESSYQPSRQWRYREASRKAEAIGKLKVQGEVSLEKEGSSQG

[27] = biological target: Adenosine receptor A2b (Homo sapiens) (UniProt P29275); test: RLU of ADORA2B at 1.0 µM in the […] PRESTO-Tango GPCRome screen
[28] = biological target: C-X-C chemokine receptor type 6 (Homo sapiens) (UniProt O00574); test: RLU of CXCR6 at 1.0 µM in the […] PRESTO-Tango GPCRome screen
[29] = biological target: Prostaglandin D2 receptor 2 (Homo sapiens) (UniProt Q9Y5Y4); test: RLU of GPR44 at 1.0 µM in the […] PRESTO-Tango GPCRome screen
[30] = biological target: Calcitonin receptor (Homo sapiens) (UniProt P30988); test: RLU of CALCRb at 1.0 µM in the […] PRESTO-Tango GPCRome screen
[31] = biological target: Mas-related G-protein coupled receptor member X1 (Homo sapiens) (UniProt Q96LB2); test: RLU of MRGPRX1 at 1.0 µM in the […] PRESTO-Tango GPCRome screen
Sequence of Mas-related G-protein coupled receptor member X1 (Homo sapiens) (Q96LB2 whole entry): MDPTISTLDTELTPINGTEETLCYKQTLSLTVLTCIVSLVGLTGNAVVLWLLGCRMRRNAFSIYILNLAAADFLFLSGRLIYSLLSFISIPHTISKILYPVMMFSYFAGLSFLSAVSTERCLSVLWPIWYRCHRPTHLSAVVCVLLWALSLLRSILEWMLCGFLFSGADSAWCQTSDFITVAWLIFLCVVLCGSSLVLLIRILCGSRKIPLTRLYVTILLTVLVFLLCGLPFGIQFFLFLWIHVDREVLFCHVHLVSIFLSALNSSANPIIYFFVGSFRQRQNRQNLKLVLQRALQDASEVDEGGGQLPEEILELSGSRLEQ

[32] = biological target: Leukotriene B4 receptor 1 (Homo sapiens, UniProt Q15722); test: RLU of LTB4R at 1.0 µM in the […] PRESTO-Tango GPCRome screen
Sequence of Leukotriene B4 receptor 1 (Q15722 whole entry): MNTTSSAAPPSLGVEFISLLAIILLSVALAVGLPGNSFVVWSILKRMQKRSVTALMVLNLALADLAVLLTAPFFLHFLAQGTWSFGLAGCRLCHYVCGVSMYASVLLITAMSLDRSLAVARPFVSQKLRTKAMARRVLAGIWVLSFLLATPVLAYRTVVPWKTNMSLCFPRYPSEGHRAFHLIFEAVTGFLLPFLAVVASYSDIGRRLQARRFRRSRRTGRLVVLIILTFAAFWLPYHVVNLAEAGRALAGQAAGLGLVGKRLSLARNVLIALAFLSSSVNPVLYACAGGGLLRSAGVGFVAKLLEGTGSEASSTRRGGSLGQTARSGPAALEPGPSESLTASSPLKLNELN

[33] = biological target: Substance-P receptor (Homo sapiens) (UniProt P25103); test: RLU of TACR1 at 1.0 µM in the […] PRESTO-Tango GPCRome screen
[34] = biological target: Beta-3 adrenergic receptor (Homo sapiens) (UniProt P13945); test: RLU of ADRB3 at 1.0 µM in the […] PRESTO-Tango GPCRome screen
[35] = biological target: Glucagon receptor (Homo sapiens) (UniProt P47871); test: RLU of GCGR at 1.0 µM in the […] PRESTO-Tango GPCRome screen
[36] = biological target: Prostaglandin E2 receptor EP1 subtype (Homo sapiens) (UniProt P34995); test: RLU of PTGER1 at 1.0 µM in the […] PRESTO-Tango GPCRome screen

Sequence of 5-hydroxytryptamine receptor 5A (Homo sapiens) (P47898 whole entry): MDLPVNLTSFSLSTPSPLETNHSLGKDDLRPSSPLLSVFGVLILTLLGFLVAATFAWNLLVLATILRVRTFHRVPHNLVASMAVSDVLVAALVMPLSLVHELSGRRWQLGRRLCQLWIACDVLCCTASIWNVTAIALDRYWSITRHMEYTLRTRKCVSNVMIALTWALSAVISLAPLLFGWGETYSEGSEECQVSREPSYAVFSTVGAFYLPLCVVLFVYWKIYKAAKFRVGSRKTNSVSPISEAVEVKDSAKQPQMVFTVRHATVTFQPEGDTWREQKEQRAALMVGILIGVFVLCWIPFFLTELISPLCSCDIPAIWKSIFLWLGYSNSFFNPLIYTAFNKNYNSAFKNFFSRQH

RLU [1]: -1880
RLU [2]: 1810
RLU [3]: 31.8
RLU [4]: 1610
RLU [5]: -511
RLU [6]: 1630
RLU [7]: -114
RLU [8]: 2250
RLU [9]: 5660
RLU [10]: 5320
RLU [12]: 127
RLU [13]: 8730
RLU [14]: -212
RLU [15]: 3480
RLU [16]: 12900
RLU [17]: -2060
RLU [18]: 342
RLU [19]: 272
RLU [20]: 342
RLU [21]: 6200
RLU [22]: 2850
RLU [23]: -70
RLU [24]: -238
RLU [25]: 6270
RLU [26]: -153
RLU [27]: 6490
RLU [28]: 761
RLU [29]: -285
RLU [30]: -5810
RLU [31]: 319
RLU [32]: -270
RLU [33]: -4720
RLU [34]: 12400
RLU [35]: 1330
RLU [36]: -390
SMILES: CCCCC(=O)N1CC2(C1)CN(c1ccccc1-c1nnn[nH]1)C2
RLU [11]: 351
